Reference: publication PMC8578332 (Scientific Reports, 2021)
Where a SMILES comes first, the peptide text is derived from it. Bridges are numbered along the chain shown (N, C = ends).

Each compound was assayed against human α7-containing nAChRs (Homo sapiens, UniProt P36544) (assay: cell-based). Conditions: SEM.
Assay type: cell-based

human α7-containing nAChRs, sequence (P36544 23-502 limits assumed): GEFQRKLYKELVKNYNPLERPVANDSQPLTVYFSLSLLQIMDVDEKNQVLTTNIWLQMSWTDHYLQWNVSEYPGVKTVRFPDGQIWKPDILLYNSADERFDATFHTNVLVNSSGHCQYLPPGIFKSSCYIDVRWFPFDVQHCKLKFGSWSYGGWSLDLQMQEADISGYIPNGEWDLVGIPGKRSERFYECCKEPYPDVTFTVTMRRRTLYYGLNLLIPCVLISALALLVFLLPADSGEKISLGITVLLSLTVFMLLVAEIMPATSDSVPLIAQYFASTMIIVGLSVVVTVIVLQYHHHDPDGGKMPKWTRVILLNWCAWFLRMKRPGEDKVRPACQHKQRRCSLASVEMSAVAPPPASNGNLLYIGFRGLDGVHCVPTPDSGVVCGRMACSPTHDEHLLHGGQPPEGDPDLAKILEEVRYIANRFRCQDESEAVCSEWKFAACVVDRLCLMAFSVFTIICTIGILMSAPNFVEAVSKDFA

Row | Compound | IC50 [µM]
1 | CC(C)[C@H](NC(=O)[C@@H]1CSSC[C@@H]2NC(=O)[C@@H](NC(=O)[C@@H](N)CO)CSSC[C@H](NC(=O)[C@H](C)NC(=O)[C@@H]3CCCN3C(=O)[C@H](CC(N)=O)NC(=O)[C@H](CCCNC(=N)N)NC(=O)[C@H](C)NC2=O)C(=O)N[C@@H](CCCNC(=N)N)C(=O)N[C@@H](Cc2c[nH]cn2)C(=O)N[C@@H](CC(N)=O)C(=O)N[C@@H](Cc2c[nH]cn2)C(=O)N2CCC[C@H]2C(=O)N1)C(N)=O [gAusIA] (H-SCCARNPACRHNHPCV-NH2; disulfide 2-9, 3-15) | 47 ± 6.7
2 | CC[C@H](C)[C@@H]1NC(=O)[C@H](CC(N)=O)NC(=O)[C@@H]2CCCN2C(=O)[C@H](CC(N)=O)NC(=O)[C@H](CC(N)=O)NC(=O)[C@H](C(C)C)NC(=O)[C@H](CCCNC(=N)N)NC(=O)[C@@H]2CSSC[C@H](NC(=O)CNC(=O)[C@@H](N)CO)C(=O)N[C@@H](CSSC[C@@H](C(N)=O)NC1=O)C(=O)N[C@@H](CO)C(=O)N[C@@H](CC(N)=O)C(=O)N1CCC[C@H]1C(=O)N[C@@H](C)C(=O)N2 [gLsIA, reference compound] (H-SGCCSNPACRVNNPNIC-NH2; disulfide 3-9, 4-17) | 0.3 ± 0.063
3 | CC[C@H](C)[C@@H]1NC(=O)[C@@H]2CSSC[C@H](NC(=O)CN)C(=O)N[C@@H](CSSC[C@@H](C(N)=O)NC(=O)[C@H](CC(C)C)NC(=O)[C@H](CC(=O)O)NC(=O)[C@@H]3CCCN3C(=O)[C@H](CC(N)=O)NC(=O)[C@H](CC(N)=O)NC(=O)[C@H](CC(C)C)NC1=O)C(=O)N[C@@H](CO)C(=O)N[C@@H](CCCNC(=N)N)C(=O)N1CCC[C@H]1C(=O)N1CCC[C@H]1C(=O)N2 [gTxIA [A10L], reference compound] (H-GCCSRPPCILNNPDLC-NH2; disulfide 2-8, 3-16) | 0.5 ± 0.036
4 | CC[C@H](C)[C@@H]1NC(=O)[C@@H]2CSSC[C@H](NC(=O)CN)C(=O)N[C@@H](CSSC[C@@H](C(N)=O)NC(=O)[C@H](CC(C)C)NC(=O)[C@H](CC(=O)O)NC(=O)[C@@H]3CCCN3C(=O)[C@H](CC(N)=O)NC(=O)[C@H](CC(N)=O)NC(=O)[C@H](CC(C)C)NC1=O)C(=O)N[C@@H](CO)C(=O)N[C@@H](C)C(=O)N[C@@H](CCCNC(=N)N)C(=O)N1CCC[C@H]1C(=O)N1CCC[C@H]1C(=O)N2 [gTxIA[∇A5 A10L]] (H-GCCSARPPCILNNPDLC-NH2; disulfide 2-9, 3-17) | 18 ± 4
5 | CC(C)[C@H](NC(=O)[C@@H]1CSSC[C@H](NC(=O)[C@@H](N)CO)C(=O)N[C@H]2CSSC[C@H](NC(=O)[C@H](C)NC(=O)[C@@H]3CCCN3C(=O)[C@H](CC(N)=O)NC(=O)[C@H](CCCNC(=N)N)NC(=O)[C@H](C)NC2=O)C(=O)N[C@@H](CCCNC(=N)N)C(=O)N[C@@H](Cc2c[nH]cn2)C(=O)N[C@@H](CC(N)=O)C(=O)N[C@@H](Cc2c[nH]cn2)C(=O)N2CCC[C@H]2C(=O)N1)C(N)=O [rAusIA] (H-SCCARNPACRHNHPCV-NH2; disulfide 2-15, 3-9) | 26 ± 5
6 | CC[C@H](C)[C@@H]1NC(=O)[C@H](CC(N)=O)NC(=O)[C@@H]2CCCN2C(=O)[C@H](CC(N)=O)NC(=O)[C@H](CC(N)=O)NC(=O)[C@H](C(C)C)NC(=O)[C@H](CCCNC(=N)N)NC(=O)[C@@H]2CSSC[C@H](NC(=O)[C@@H](NC(=O)CNC(=O)[C@@H](N)CO)CSSC[C@@H](C(N)=O)NC1=O)C(=O)N[C@@H](CO)C(=O)N[C@@H](CC(N)=O)C(=O)N1CCC[C@H]1C(=O)N[C@@H](C)C(=O)N2 [rLsIA, reference compound] (H-SGCCSNPACRVNNPNIC-NH2; disulfide 3-17, 4-9) | 41 ± 3.4
7 | CC[C@H](C)[C@@H]1NC(=O)[C@@H]2CSSC[C@H](NC(=O)[C@@H](NC(=O)CN)CSSC[C@@H](C(N)=O)NC(=O)[C@H](CC(C)C)NC(=O)[C@H](CC(=O)O)NC(=O)[C@@H]3CCCN3C(=O)[C@H](CC(N)=O)NC(=O)[C@H](CC(N)=O)NC(=O)[C@H](CC(C)C)NC1=O)C(=O)N[C@@H](CO)C(=O)N[C@@H](CCCNC(=N)N)C(=O)N1CCC[C@H]1C(=O)N1CCC[C@H]1C(=O)N2 [rTxIA [A10L], reference compound] (H-GCCSRPPCILNNPDLC-NH2; disulfide 2-16, 3-8) | 6 ± 0.123
8 | CC[C@H](C)[C@@H]1NC(=O)[C@@H]2CSSC[C@H](NC(=O)[C@@H](NC(=O)CN)CSSC[C@@H](C(N)=O)NC(=O)[C@H](CC(C)C)NC(=O)[C@H](CC(=O)O)NC(=O)[C@@H]3CCCN3C(=O)[C@H](CC(N)=O)NC(=O)[C@H](CC(N)=O)NC(=O)[C@H](CC(C)C)NC1=O)C(=O)N[C@@H](CO)C(=O)N[C@@H](C)C(=O)N[C@@H](CCCNC(=N)N)C(=O)N1CCC[C@H]1C(=O)N1CCC[C@H]1C(=O)N2 [rTxIA[∇A5 A10L]] (H-GCCSARPPCILNNPDLC-NH2; disulfide 2-17, 3-9) | 39 ± 10.3
